Drawing on patent US10765662B2, “Mono- or di-substituted indole derivatives as dengue viral replication inhibitors” (Janssen Pharmaceuticals, Inc., priority 2015, dated 2020), this text covers EC50, CC50 and melting point for eight compounds.

Structures are written as SMILES.

The test system of one series is DENV-1 strain TC974#666. The series can be described thus: Tetravalent RT-qPCR assay Protocol A, serotype 1. The series is classed as cell-based. The settings on record: Dengue virus, DENV1, 72 h; RT-qPCR serotype 1 TC974#666, Vero cells, day 3. On the procedure: (§1) The antiviral activity of the compounds of the invention was tested against DENV-1 strain TC974#666 (NCPV), DENV-2 strain 16681, DENV-3 strain H87 (NCPV) and DENV-4 strains H241 (NCPV) and EDEN (SG/06K2270DK1/2005; GenBank accession number QG398256) in a RT-qPCR assay. Therefore, Vero cells were infected with either DENV-1, or -2, or -3, or -4 in the presence or absence of test compounds. At day 3 post-infection, the cells were lysed and cell lysates were used to prepare cDNA of both a viral target (the 3′UTR of DENV; Table 2) and a cellular reference gene (β-actin, Table 2). Subsequently, a duplex real time PCR was performed on a Lightcycler480 instrument. The generated Cp value is inversely proportional to the amount of RNA expression of these targets. Inhibition of DENV replication by a test compound results in a shift of Cp's for the 3′UTR gene. On the other hand, if a test compound is toxic to the cells, a similar effect on β-actin expression will be observed. The comparative ΔΔCp method is used to calculate EC50, which is based on the relative gene expression of the target gene (3′UTR) normalized with the cellular housekeeping gene (β-actin). In addition, CC50 values are determined based on the Cp values acquired for the housekeeping gene β-actin.
(§2) The culture medium consisted of minimal essential medium supplemented with 2% of heat-inactivated fetal calf serum, 0.04% gentamycin (50 mg/mL) and 2 mM of L-glutamine. Vero cells, obtained from ECACC, were suspended in culture medium and 75 μL/well was added in 96-well plates (10000 cells/well), which already contain the antiviral compounds. […] In addition, each plate contains wells which are assigned as virus controls (containing cells and virus in the absence of compound) and cell controls (containing cells in the absence of virus and compound). Once the cells were added in the plates, the plates were incubated in a fully humidified incubator (37° C., 5% CO2) until the next day. Dengue viruses serotype-1, 2, 3 and 4 were diluted in order to obtain a Cp of ˜22-24 in the assay. Therefore, 25 μL of virus suspension, was added to all the wells containing test compound and to the wells assigned as virus control. In parallel, 25 μL of culture medium was added to the cell controls. Next, the plates were incubated for 3 days in a fully humidified incubator (37° C., 5% CO2). After 3 days, the supernatant was removed from the wells and the cells were washed twice with ice-cold PBS (˜100 μL). The cell pellets within the 96-well plates were stored at −80° C. for at least 1 day. Next, RNA was extracted using the Cells-to-CT™ lysis kit, according to the manufacturer's guideline (Life Technologies). The cell lysates can be stored at −80° C. or immediately used in the reverse transcription step.
(§3) In preparation of the reverse transcription step, mix A (table 3A) was prepared and 7.57 μL/well was dispensed in a 96-well plate. After addition of 5 μL of the cell lysates, a five minute denaturation step at 75° C. was performed (table 3B). Afterwards, 7.43 μL of mix B was added (table 3C) and the reverse transcription step was initiated (table 3D) to generate cDNA.
(§4) Finally, a RT-qPCR mix was prepared, mix C (table 4A), and 22.02 μL/well was dispensed in 96-well LightCycler qPCR plates to which 3 μL of cDNA was added and the qPCR was performed according to the conditions in table 4B on a LightCycler 480.
(§5) Using the LightCycler software and an in-house LIMS system, dose response curves for each compound were calculated and the half maximal effective concentration (EC50) and the half maximal cytotoxic concentration (CC50) were determined (Tables 5-8).
On the technique in general: Quantitative PCR measures a nucleic acid by following its amplification.

In a further series the test system is DENV-2 strain 16681. The series can be described thus: Tetravalent RT-qPCR assay Protocol A, serotype 2. The note with it: Dengue virus, DENV2, 72 h; RT-qPCR serotype 2 16681, Vero cells, day 3. The series is classed as cell-based. On the procedure: as §1, §2, §3, §4, §5
The test system of a further series is Vero cells. The experiment in a line: in vitro. The series is classed as cell-based. The note with it: African green monkey. On the procedure:
(§6) In parallel, the toxicity of the compounds was assessed on the same plates. Once the read-out for the eGFP signal was done, 40 μL of ATPlite, a cell viability stain, was added to all wells of the 384-well plates. ATP is present in all metabolically active cells and the concentration declines very rapidly when the cells undergo necrosis or apoptosis. The ATPLite assay system is based on the production of light caused by the reaction of ATP with added luciferase and D-luciferin. The plates were incubated for 10 minutes at room temperature. Next, the plates were measured on a ViewLux. The half maximal cytotoxic concentration (CC50) was also determined, defined as the concentration required to reduce the luminescent signal by 50% compared to that of the cell control wells. Finally, the selectivity index (SI) was determined for the compounds, which was calculated as followed: SI=CC50/EC50.

Series [1] has as its system DENV-2 16681 strain labeled with enhanced green fluorescent protein. The experiment in a line: DENV-2 antiviral assay (eGFP fluorescence read-out in Vero cells). The settings on record: DENV-2 16681 eGFP, MOI 0.5, 3 days. Format: cell-based, Dengue virus. On the procedure: The antiviral activity of all the compounds of the invention was tested against the DENV-2 16681 strain which was labeled with enhanced green fluorescent protein (eGPF). The culture medium consists of minimal essential medium supplemented with 2% of heat-inactivated fetal calf serum, 0.04% gentamycin (50 mg/mL) and 2 mM of L-glutamine. Vero cells, obtained from ECACC, were suspended in culture medium and 25 μL was added to 384-well plates (2500 cells/well), which already contain the antiviral compounds. Typically, these plates contain a 5-fold serial dilution of 9 dilution steps of the test compound at 200 times the final concentration in 100% DMSO (200 nL). […] Finally, each plate contains wells which are assigned as virus controls (containing cells and virus in the absence of compound), cell controls (containing cells in the absence of virus and compound) and medium controls (containing medium in the absence of cells, virus and compounds). To the wells assigned as medium control, 25 μL of culture medium was added instead of Vero cells. Once the cells were added to the plates, the plates were incubated for 30 minutes at room temperature to allow the cells to distribute evenly within the wells. Next, the plates were incubated in a fully humidified incubator (37° C., 5% CO2) until the next day. Then, DENV-2 strain 16681, labeled with eGFP, was added at a multiplicity of infection (MOI) of 0.5. Therefore, 15 μL of virus suspension was added to all the wells containing test compound and to the wells assigned as virus control. In parallel, 15 μL of culture medium was added to the medium and cell controls. Next, the plates were incubated for 3 days in a fully humidified incubator (37° C., 5% CO2). At the day of the read out, the eGFP fluorescence was measured using an automated fluorescence microscope at 488 nm (blue laser). Using an in-house LIMS system, inhibition dose response curves for each compound were calculated and the half maximal effective concentration (EC50) was determined. Therefore, the percent inhibition (I) for every test concentration is calculated using the following formula: I=100*([…])/(SVC−SCC); ST, SCC and SVC are the amount of eGFP signal in the test compound, cell control and virus control wells, respectively. The EC50 represents the concentration of a compound at which the virus replication is inhibited with 50%, as measured by a 50% reduction of the eGFP fluorescent intensity compared to the virus control. The EC50 is calculated using linear interpolation (Table 1).

A short description of series [2]: in vitro. The settings on record: African green monkey. Format: cell-based. How it is done:
as §1, §2, §5

Series [3] relates to DENV-4 strain EDEN (SG/06K2270DK1/2005). The experiment in a line: Tetravalent RT-qPCR assay Protocol A, serotype 4 EDEN. Format: cell-based. The settings on record: Dengue virus, DENV4, 72 h; RT-qPCR serotype 4 EDEN, Vero cells, day 3. How it is done:
as §1, §2, §3, §4, §5

Another series relates to DENV-4 strain H241. The series can be described thus: Tetravalent RT-qPCR assay Protocol A, serotype 4 H241. Format: cell-based. The note with it: Dengue virus, DENV4, Vero, 72 h. On the procedure:
as §1, §2, §3, §4, §5

For the next series, the system named is DENV-3 strain H87. The series can be described thus: Tetravalent RT-qPCR assay Protocol A, serotype 3. The series is classed as cell-based. The note with it: Dengue virus, DENV3, 72 h; RT-qPCR serotype 3 H87, Vero cells, day 3. How it is done:
as §1, §2, §3, §4, §5

A short description of series [4]: in vitro. The series is classed as cell-based. The settings on record: African green monkey, CC50. How it is done: as §6
Where [5] appears, read: Dengue virus, DENV2, Vero, 72 h.

In general, EC50 refers to the midpoint of the concentration-response curve. As usually defined, the CC50 is the concentration that lowers cell viability or growth by half. For `COc1cc(NC(C(=O)c2c[nH]c3cc(OC)ccc23)c2ccc(Cl)cc2OCCO)cc(S(C)(=O)=O)c1` (single isomer, unassigned) [Compound 3A, 2-(4-chloro-2-(2-hydroxyethoxy)phenyl)-1-(6-methoxy-1H-indol-3-yl)-2-((3-methoxy-5-(methylsulfonyl)phenyl)amino)ethanone], the concentration for a half-maximal effect (EC50) is 4.2 nM in the series with DENV-1 strain TC974#666; 0.4 nM with DENV-2 strain 16681; 0.32 nM in series [1]; 3.1 nM in series [3]; 110 nM in the series on DENV-4 strain H241; 42 nM with DENV-3 strain H87. In the series with Vero cells, the midpoint of cytotoxicity, the CC50, lay at 5200 nM. Also, the midpoint of cytotoxicity in “in vitro [2]”, the CC50 at 3 days, lay at 5800 nM.
The melting point is the temperature of the solid-liquid transition. The compound `COc1cc(NC(C(=O)c2c[nH]c3ccc(C(F)(F)F)cc23)c2ccc(Cl)cc2OCCO)cc(S(C)(=O)=O)c1` (racemic) [Compound 9, 2-(4-chloro-2-(2-hydroxyethoxy)phenyl)-2-((3-methoxy-5-(methylsulfonyl)phenyl)amino)-1-(5-(trifluoromethyl)-1H-indol-3-yl)ethanone] displayed a melting point of 228 °C. This compound yielded a CC50 in the series “in vitro [4]” greater than 2500 nM. For the same compound, the concentration giving a half-maximal response (EC50) in series [1] (setting [5]) was 0.1 nM.
In the case of `COc1cc(NC(C(=O)c2c[nH]c3cc(OC)c(OC(F)(F)F)cc23)c2ccc(Cl)cc2OCCO)cc(S(C)(=O)=O)c1` (racemic) [Compound 11, 2-(4-chloro-2-(2-hydroxyethoxy)phenyl)-2-((3-methoxy-5-(methylsulfonyl)phenyl)amino)-1-(6-methoxy-5-(trifluoromethoxy)-1H-indol-3-yl)ethanone], the melting point amounted to 212 °C. Also, the 50% cytotoxic concentration (CC50) in “in vitro [4]” was greater than 2500 nM. For the same compound, the EC50 in [1] (setting [5]) was 0.2 nM.
Turning to `COc1cc(NC(C(=O)c2c[nH]c3cc(OC)c(C)cc23)c2ccc(Cl)cc2OCCO)cc(S(C)(=O)=O)c1` (single isomer, unassigned) [Compound 6A, 2-(4-chloro-2-(2-hydroxyethoxy)phenyl)-2-((3-methoxy-5-(methylsulfonyl)phenyl)amino)-1-(6-methoxy-5-methyl-1H-indol-3-yl)ethanone], the EC50 in the series on DENV-1 strain TC974#666 stood at 1.6 nM; in the series on DENV-2 strain 16681 it was 0.21 nM; in [1], 0.13 nM; in series [3], 1 nM; in the series on DENV-4 strain H241, 53 nM; in the series with DENV-3 strain H87 it was 17 nM. In “in vitro [4]”, this compound registered a 50% cytotoxic concentration (CC50) of 3800 nM. In the series “in vitro [2]”, this compound yielded a CC50 at 3 days of 4900 nM.
Consider `COc1cc(NC(C(=O)c2c[nH]c3c(C)c(F)ccc23)c2ccc(Cl)cc2OCCO)cc(S(C)(=O)=O)c1` (single isomer, unassigned) [Compound 4A, 2-(4-chloro-2-(2-hydroxyethoxy)phenyl)-1-(6-fluoro-7-methyl-1H-indol-3-yl)-2-((3-methoxy-5-(methylsulfonyl)phenyl)amino)ethanone], for which the EC50 was found to be 1.7 nM with DENV-1 strain TC974#666; 0.16 nM with DENV-2 strain 16681; 0.13 nM in [1]; 1.4 nM in series [3]; 78 nM with DENV-4 strain H241; 18 nM with DENV-3 strain H87. For the same compound, the CC50 in the series “in vitro [4]” amounted to 3000 nM. The same compound showed a CC50 at 3 days in the series “in vitro [2]” greater than 2500 nM.
With `COc1cc(NC(C(=O)c2c[nH]c3cc(OC)ccc23)c2ccc(Cl)cc2OCCO)cc(S(C)(=O)=O)c1` (racemic) [Compound 3, 2-(4-chloro-2-(2-hydroxyethoxy)phenyl)-1-(6-methoxy-1H-indol-3-yl)-2-((3-methoxy-5-(methylsulfonyl)phenyl)amino)ethanone], the melting point turned out to be 149 °C. The same compound showed a 50% cytotoxic concentration (CC50) in “in vitro [4]” of 12000 nM. For the same compound, the EC50 in series [1] (setting [5]) was determined as 0.54 nM.
The like results for `COc1cc(NC(C(=O)c2c[nH]c3c(C)c(Cl)ccc23)c2ccc(Cl)cc2OCCO)cc(S(C)(=O)=O)c1` (racemic) [Compound 5, 2-(4-chloro-2-(2-hydroxyethoxy)phenyl)-1-(6-chloro-7-methyl-1H-indol-3-yl)-2-((3-methoxy-5-(methylsulfonyl)phenyl)amino)ethanone] were, in that order, 206 °C, 4300 nM and 0.1 nM.
Compound `COc1cc(NC(C(=O)c2c[nH]c3cc(Cl)ccc23)c2ccc(Cl)cc2OCCO)cc(S(C)(=O)=O)c1` (racemic) [Compound 2, 1-(6-chloro-1H-indol-3-yl)-2-(4-chloro-2-(2-hydroxyethoxy)phenyl)-2-((3-methoxy-5-(methylsulfonyl)phenyl)amino)ethanone] yielded a melting point of 121 °C. This compound also had a CC50 in “in vitro [4]” of 4200 nM. The EC50 in series [1] (setting [5]) was 0.27 nM.
